Assay results as given in US20240024514A1, “RECOMBINANT ADENO-ASSOCIATED VIRUSES WITH ENHANCED LIVER TROPISM AND USES THEREOF” (priority 2020, published 2024).

What was measured:
[1] = system: HBsAg; test: HBsAg in HBV transgenic mice; type: in vivo; conditions: blood, LAM 150 mg/kg, ETV 3.2 mg/kg, rAAV 3 × 10^10 vg/animal
Procedure: (§1) scAAV2/X-H1-shRNA-intron2 and scAAV2/8-H1-shRNA-intron2 were administered to HBV transgenic mice (Beijing Vitalstar Biotechnology Co., Ltd, B6-Tg HBV/Vst; C57BL/6-HBV) via intravenous injection, respectively. Epivir® (Lamivudine) and Baraclude® (Entecavir) were used as controls. Blood was collected on days 0, 7, 14, 21, 28, 35, 56, 84, 112, 140, 168, 196, 224, and 252, centrifuged, and assayed for the level of HBsAg, HBeAg, and HBV DNA.

[2] = system: HBeAg; test: HBeAg in HBV transgenic mice; type: in vivo; conditions: blood, ETV 3.2 mg/kg, rAAV 3 × 10^10 vg/animal
Procedure: as §1

[3] = system: HBV DNA; test: HBV DNA in HBV transgenic mice; type: in vivo; conditions: blood, LAM 150 mg/kg, ETV 3.2 mg/kg, rAAV 3 × 10^10 vg/animal
Procedure: as §1

[4] = system: HBV HBsAg; test: suppression of HBV HBsAg in HepG2.2.15 cells; type: cell-based, Hepatitis B virus; conditions: 1 ug/mL
Procedure: (§2) scAAV2/X-H1-shRNA-intron2 and scAAV2/8-H1-shRNA-intron2 were used to infect HepG2.2.15 cells with increased Multiplicity of Infection (MOI). The levels of HBV HBeAg, HBV HBsAg, and HBV DNA in samples were measured by HBV HBeAg diagnostic kit (Beijing Wantai Biopharmaceuticals Ltd. Co.), HBV HBsAg diagnostic kit (Beijing Wantai Biopharmaceuticals Ltd. Co.), and HBV nucleotide quantification kit (QIAGEN), respectively. 1 ug/mL of Lamivudine (LAM) was used as a positive control in the experiments. scAAV2/X-H1-NC-intron2 (X-NC) and scAAV2/8-H1-NC-intron2 (8-NC) were used as negative controls. […] The sample was collected every day for nine days and analyzed for the levels of HBeAg, HbsAg, and HBV DNA.

[5] = system: HBV HBeAg; test: suppression of HBV HBeAg in HepG2.2.15 cells; type: cell-based, Hepatitis B virus; conditions: 1 ug/mL
Procedure: as §2

[6] = system: HBV DNA; test: suppression of HBV DNA in HepG2.2.15 cells; type: cell-based, Hepatitis B virus; conditions: 1 ug/mL
Procedure: as §2

C=C1[C@H](CO)[C@@H](O)C[C@@H]1n1cnc2c(=O)[nH]c(N)nc21 [ETV, Entecavir]
HBsAg Levels ([1]; D0): 1
HBsAg Levels ([1]; D7): 1.52
HBsAg Levels ([1]; D14): 1.51
HBsAg Levels ([1]; D21): 1.08
HBsAg Levels ([1]; D28): 1.55
HBsAg Levels ([1]; D35): 1.8
HBsAg Levels ([1]; D56): 1.21
HBsAg Levels ([1]; D84): 1.18
HBsAg Levels ([1]; D112): 0.43
HBsAg Levels ([1]; D140): 1.04
HBsAg Levels ([1]; D168): 1.23
HBsAg Levels ([1]; D196): 1.48
HBsAg Levels ([1]; D224): 1.16
HBsAg Levels ([1]; D252): 0.72
HBeAg Levels ([2]; D0): 130.7 PEIU/mL
HBeAg Levels ([2]; D7): 138.6 PEIU/mL
HBeAg Levels ([2]; D14): 92.1 PEIU/mL
HBeAg Levels ([2]; D21): 66.5 PEIU/mL
HBeAg Levels ([2]; D28): 78.3 PEIU/mL
HBeAg Levels ([2]; D35): 48.2 PEIU/mL
HBeAg Levels ([2]; D56): 131.4 PEIU/mL
HBeAg Levels ([2]; D84): 105.1 PEIU/mL
HBeAg Levels ([2]; D112): 133.8 PEIU/mL
HBeAg Levels ([2]; D140): 178.5 PEIU/mL
HBeAg Levels ([2]; D168): 125.9 PEIU/mL
HBeAg Levels ([2]; D196): 150.5 PEIU/mL
HBeAg Levels ([2]; D224): 123.5 PEIU/mL
HBeAg Levels ([2]; D252): 155.1 PEIU/mL
HBV DNA Levels ([3]; D0): 1
HBV DNA Levels ([3]; D7): 5.7
HBV DNA Levels ([3]; D14): 8.68
HBV DNA Levels ([3]; D21): 0.66
HBV DNA Levels ([3]; D28): 1.24
HBV DNA Levels ([3]; D35): 1.08
HBV DNA Levels ([3]; D56): 1.17
HBV DNA Levels ([3]; D84): 1.1
HBV DNA Levels ([3]; D112): 2.24
HBV DNA Levels ([3]; D140): 1.91
HBV DNA Levels ([3]; D168): 1.79
HBV DNA Levels ([3]; D196): 2.17
HBV DNA Levels ([3]; D224): 2.48
HBV DNA Levels ([3]; D252): 1.42

Nc1ccn([C@@H]2CS[C@H](CO)O2)c(=O)n1 [Lamivudine]
level of HBsAg ([4]; D0): 1
level of HBsAg ([4]; D1): 0.7085
level of HBsAg ([4]; D2): 1.069
level of HBsAg ([4]; D3): 0.8838
level of HBsAg ([4]; D4): 0.8549
level of HBsAg ([4]; D5): 0.9837
level of HBsAg ([4]; D6): 1.128
level of HBsAg ([4]; D7): 1.284
level of HBsAg ([4]; D8): 1.324
level of HBsAg ([4]; D9): 0.7175
level of HBeAg ([5]; D0): 1
level of HBeAg ([5]; D1): 1.323
level of HBeAg ([5]; D2): 0.716
level of HBeAg ([5]; D3): 0.9612
level of HBeAg ([5]; D4): 1.035
level of HBeAg ([5]; D5): 1.916
level of HBeAg ([5]; D6): 0.9979
level of HBeAg ([5]; D7): 1.148
level of HBeAg ([5]; D8): 0.9362
level of HBeAg ([5]; D9): 0.5632
level of HBV DNA ([6]; D0): 1
level of HBV DNA ([6]; D1): 0.6797
level of HBV DNA ([6]; D2): 0.358
level of HBV DNA ([6]; D3): 0.357
level of HBV DNA ([6]; D4): 0.1907
level of HBV DNA ([6]; D5): 0.05735
level of HBV DNA ([6]; D6): 0.02341
level of HBV DNA ([6]; D7): 0.04001
level of HBV DNA ([6]; D8): 0.02104
level of HBV DNA ([6]; D9): 0.006153
HBsAg Levels ([1]; D0): 1
HBsAg Levels ([1]; D7): 1
HBsAg Levels ([1]; D14): 0.98
HBsAg Levels ([1]; D21): 1.01
HBsAg Levels ([1]; D28): 0.96
HBsAg Levels ([1]; D35): 1.23
HBsAg Levels ([1]; D56): 0.84
HBsAg Levels ([1]; D84): 0.88
HBsAg Levels ([1]; D112): 0.5
HBsAg Levels ([1]; D140): 0.98
HBsAg Levels ([1]; D168): 1.1
HBsAg Levels ([1]; D196): 0.82
HBsAg Levels ([1]; D224): 0.76
HBsAg Levels ([1]; D252): 0.46
HBV DNA Levels ([3]; D0): 1
HBV DNA Levels ([3]; D7): 1.3
HBV DNA Levels ([3]; D14): 0.69
HBV DNA Levels ([3]; D21): 0.49
HBV DNA Levels ([3]; D28): 0.87
HBV DNA Levels ([3]; D35): 0.72
HBV DNA Levels ([3]; D56): 0.97
HBV DNA Levels ([3]; D84): 0.43
HBV DNA Levels ([3]; D112): 1.64
HBV DNA Levels ([3]; D140): 0.92
HBV DNA Levels ([3]; D168): 0.63
HBV DNA Levels ([3]; D196): 0.18
HBV DNA Levels ([3]; D224): 0.12
HBV DNA Levels ([3]; D252): 0.23
